For one assay, the system named is SW480. Kind of assay: OncoPanel cell proliferation assay (10-day). The format is cell-based, human. Particulars: for EC50 / GI50 / IC50: Homo sapiens, SW480, Colon; for EC50: read-out: Cell Count EC50; for GI50: read-out: Cell Count GI50; for IC50: read-out: Cell Count IC50.
In assay [1] the test system is A204 (soft tissue sarcoma). Kind of assay: OncoPanel cell proliferation assay (10-day). The format is cell-based. The note with it: Homo sapiens; for EC50: read-out: Cell Count EC50; for IC50: read-out: Cell Count IC50.
The subject of a further assay is L3MBTL1 MBT domain. Briefly: Epigenetic binding assay, MBT domain. The note with it: 10 μM.
In another assay the test system is H3K79 me2. Briefly: Cell-based detection methyl modifications. Particulars: read-out: % Inhibition of Control Values.
The next assay concerns H3K9 ac. Kind of assay: Cell-based detection methyl modifications. The note with it: read-out: % Inhibition of Control Values.
A further assay concerns the target DNMT3B/DNMT3L (h) (Homo sapiens, UniProt Q9UBC3). Kind of assay: Epigenetic enzyme assay, DNA methyltransferases (DNMTs). The format is biochemical. The note with it: for inhibition at 10 µM: read-out: % Inhibition of Control Values.
For assay [2], the target named is T1, sirtuin 2 (h) (inhibitor effect) (Homo sapiens, UniProt Q8IXJ6).
T1 sequence (Q8IXJ6 1-389): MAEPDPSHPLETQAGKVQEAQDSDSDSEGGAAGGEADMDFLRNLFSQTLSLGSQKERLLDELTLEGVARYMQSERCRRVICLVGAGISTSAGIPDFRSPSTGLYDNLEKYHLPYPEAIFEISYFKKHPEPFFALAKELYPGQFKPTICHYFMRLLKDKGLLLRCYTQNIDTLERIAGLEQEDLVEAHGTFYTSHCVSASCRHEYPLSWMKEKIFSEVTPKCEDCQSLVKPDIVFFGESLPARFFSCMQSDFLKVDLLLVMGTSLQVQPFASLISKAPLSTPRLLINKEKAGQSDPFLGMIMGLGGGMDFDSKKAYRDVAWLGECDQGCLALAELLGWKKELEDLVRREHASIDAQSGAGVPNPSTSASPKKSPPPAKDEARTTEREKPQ
Kind of assay: Epigenetic enzyme assay, Sirtuins. The format is biochemical. Particulars: 10 μM; read-out: % Inhibition of Control Values.

The target in assay [3] is Rsk2(h) (substrate histone H3 full length) (Homo sapiens, UniProt P51812). Kind of assay: Epigenetic enzyme assay, Kinases. The format is biochemical. Particulars: read-out: % Inhibition of Control Values.
Chain of Rsk2(h) (substrate histone H3 full length) (P51812 whole entry): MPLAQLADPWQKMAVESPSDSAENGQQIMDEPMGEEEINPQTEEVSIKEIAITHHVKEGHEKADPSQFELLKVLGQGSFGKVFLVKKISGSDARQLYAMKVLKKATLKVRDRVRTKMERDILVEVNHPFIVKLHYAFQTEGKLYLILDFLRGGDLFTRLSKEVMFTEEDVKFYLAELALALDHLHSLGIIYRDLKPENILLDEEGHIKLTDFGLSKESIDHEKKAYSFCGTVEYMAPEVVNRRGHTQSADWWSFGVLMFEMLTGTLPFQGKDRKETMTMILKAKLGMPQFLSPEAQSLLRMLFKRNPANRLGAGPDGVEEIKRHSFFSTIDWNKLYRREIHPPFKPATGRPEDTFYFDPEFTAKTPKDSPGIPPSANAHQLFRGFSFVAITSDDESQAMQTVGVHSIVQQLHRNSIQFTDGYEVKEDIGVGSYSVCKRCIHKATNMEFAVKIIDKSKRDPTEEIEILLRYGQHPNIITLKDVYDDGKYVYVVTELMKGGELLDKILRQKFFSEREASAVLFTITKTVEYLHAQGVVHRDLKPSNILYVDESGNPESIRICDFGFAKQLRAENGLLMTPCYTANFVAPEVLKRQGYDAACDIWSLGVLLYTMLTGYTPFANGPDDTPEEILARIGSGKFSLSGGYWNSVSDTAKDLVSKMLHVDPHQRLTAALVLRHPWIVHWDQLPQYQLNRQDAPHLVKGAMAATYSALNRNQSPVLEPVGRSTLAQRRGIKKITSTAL
Assay [4] has as its target T2, Glycine N-methyltransferase (h) (Homo sapiens, UniProt Q14749).
T2 sequence (Q14749 1-295): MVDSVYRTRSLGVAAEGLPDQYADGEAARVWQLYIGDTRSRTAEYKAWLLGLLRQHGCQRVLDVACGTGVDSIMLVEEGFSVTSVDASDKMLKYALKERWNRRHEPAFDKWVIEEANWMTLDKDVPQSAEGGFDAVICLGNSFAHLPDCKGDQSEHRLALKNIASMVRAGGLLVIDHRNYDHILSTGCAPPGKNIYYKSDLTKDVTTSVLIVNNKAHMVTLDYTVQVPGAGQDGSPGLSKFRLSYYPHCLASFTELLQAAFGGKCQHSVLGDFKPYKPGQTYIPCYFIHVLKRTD
Kind of assay: Epigenetic enzyme assay, Small molecule methyltransferases. The format is biochemical. Particulars: read-out: % Inhibition of Control Values.

The target in assay [5] is Guanidinoacetate N-methyltransferase (h) (Homo sapiens, UniProt Q14353). Described as above. The format is biochemical. Particulars: read-out: % Inhibition of Control Values.
The target in a further assay is T3, Chemokine CCR1 (Homo sapiens, UniProt P32246).
T3 construct: expressed in transfected cells; host or cells: Chem-2 cells
T3 sequence (P32246 1-355): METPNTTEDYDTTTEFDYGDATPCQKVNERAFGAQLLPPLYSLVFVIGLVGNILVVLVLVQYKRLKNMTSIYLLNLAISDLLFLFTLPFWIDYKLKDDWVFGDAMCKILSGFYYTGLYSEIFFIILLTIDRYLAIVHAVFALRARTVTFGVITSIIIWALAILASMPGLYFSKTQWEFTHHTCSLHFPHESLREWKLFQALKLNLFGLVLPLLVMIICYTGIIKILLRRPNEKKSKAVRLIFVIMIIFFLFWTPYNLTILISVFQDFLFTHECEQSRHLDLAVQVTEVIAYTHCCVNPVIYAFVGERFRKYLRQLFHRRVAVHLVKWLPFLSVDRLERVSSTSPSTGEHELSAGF
Kind of assay: Chemokine CCR1 radio ligand binding. Particulars: assay year 2015, read-out: % Control Response. How it is done:
(§1) The in vitro pharmacological studies were conducted by Eurofins PanLab (Taiwan) using the parameters shown in Table 13 with respect to appropriate literature references.

The next assay has as its target T4, Histamine H4 (Homo sapiens, UniProt Q9H3N8).
T4 construct: expressed in transfected cells; host or cells: Chem-1 cells
Briefly: Histamine H4 radio ligand binding. The procedure:
as §1

The mark [6] stands for this setting: A204, Soft Tissue - Sarcoma, read-out: Cell Count GI50.
[7] abbreviates: assay year 2015, read-out: % Control Response.
The mark [8] stands for this setting: assay year 2014, read-out: % Control Response.

Like-named read-outs stand apart in the source and are kept apart here.

T4 sequence (Q9H3N8 whole entry): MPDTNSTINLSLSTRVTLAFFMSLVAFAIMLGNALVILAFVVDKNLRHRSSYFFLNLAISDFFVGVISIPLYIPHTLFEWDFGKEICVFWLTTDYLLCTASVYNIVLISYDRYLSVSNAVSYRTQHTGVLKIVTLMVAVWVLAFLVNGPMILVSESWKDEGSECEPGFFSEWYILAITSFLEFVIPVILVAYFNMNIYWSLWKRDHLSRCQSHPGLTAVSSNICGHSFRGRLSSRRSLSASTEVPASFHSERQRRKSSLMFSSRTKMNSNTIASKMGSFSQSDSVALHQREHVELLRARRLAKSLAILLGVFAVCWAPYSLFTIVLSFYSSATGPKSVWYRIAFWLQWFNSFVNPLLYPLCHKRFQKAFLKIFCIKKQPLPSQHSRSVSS

What is called EC50 is the concentration at which the effect is half-maximal. One may read the GI50 as the concentration that inhibits growth by half. What is called IC50 is the midpoint of a concentration-inhibition curve. Take `CC(C)=CCC[C@H](C)[C@@H]1CC[C@@H](C)c2c1cc(C)c(O)c2O` [Compound 4, 7,8-dihydroxyserrulat-14-ene]: the EC50 in the assay with SW480 stood at 12300 nM; in assay [1] (A204, Soft Tissue - Sarcoma) it was 720 nM. In addition, the GI50 in the assay with SW480 stood at 12300 nM; in assay [1] (A204, read-out: GI50) it was 684 nM; in assay [1] (setting [6]), 680 nM. In addition, the IC50 in the assay on SW480 came out at 12300 nM; in assay [1] (A204, Soft Tissue - Sarcoma), 720 nM.

The inhibition is the relative decrease from the control value, in per cent. For the compound `CC(C)=CCC[C@@H]1COc2c(C)cc(O)c3c2[C@H]1CC[C@H]3C` [Compound 3, 5,18-epoxy-8-hydroxyserrulat-14-ene], the “% Inhibition of Control Specific Binding” value in the assay on L3MBTL1 MBT domain is listed as 59%. The inhibition at 10 µM is -5% in the assay on H3K79 me2; -1% in the assay on H3K9 ac; -20% on DNMT3B/DNMT3L (h); -19% in [2]; -4% in [3]; -11% in assay [4]. Moreover, in assay [5], the inhibition at 10 µM is -1%. In addition, the remaining activity at 10 µM on Chemokine CCR1 was -5%; on Histamine H4 (setting [7]), 10%.

Turning to `CC(C)=CCC[C@@H]1C(O)Oc2c(C)cc(O)c3c2[C@H]1CC[C@H]3C` (some centres unmarked) [Compound 2, 5,18-epoxyserrulat-14-en-8,18-diol], the “% Inhibition of Control Specific Binding” value with L3MBTL1 MBT domain was determined as 61%. In addition, the inhibition at 10 µM in the assay on H3K79 me2 was -16%; in the assay with H3K9 ac, 3%; at DNMT3B/DNMT3L (h) it was 27%; in assay [2], 6%; in [3], 7%; in assay [4] it was 5%. For the same compound, the inhibition at 10 µM in assay [5] was -1%. The remaining activity at 10 µM on Chemokine CCR1 was -3%; on Histamine H4 (setting [8]), 16%; on Histamine H4 (setting [7]), -1%. Also, the EC50 with SW480 turned out to be 10100 nM; in [1] (A204, Soft Tissue - Sarcoma), 8460 nM. Further, the GI50 in the assay with SW480 worked out at 9930 nM; in [1] (setting [6]), 8500 nM. In addition, the IC50 in the assay with SW480 is 10100 nM; in [1] (A204, Soft Tissue - Sarcoma) it was 8540 nM.

With `Nc1ncnc2c1ncn2[C@@H]1O[C@H](CSCC[C@H](N)C(=O)O)[C@@H](O)[C@H]1O` [SAH], the IC50 on DNMT3B/DNMT3L (h) (read-out: Reference IC50) came to 45 nM.

With `CC(C)=CCC[C@H](CO)[C@@H]1CC[C@@H](C)c2c1cc(C)c(O)c2O` [Compound 1, 7,8,18-trihydroxyserrulat-14-ene], the “% Inhibition of Control Specific Binding” value in the assay on L3MBTL1 MBT domain was 41%. The inhibition at 10 µM was -2% in the assay on H3K79 me2; 17% in the assay on H3K9 ac; 23% at DNMT3B/DNMT3L (h); -4% in [2]; 5% in assay [3]; 55% in assay [4]. The inhibition at 10 µM in assay [5] stood at 8%. The remaining activity at 10 µM at Chemokine CCR1 worked out at 33%; at Histamine H4 (setting [8]), 50%; at Histamine H4 (setting [7]), 12%. The EC50 in the assay with SW480 is 1210 nM; in [1] (A204, Soft Tissue - Sarcoma), 520 nM. For the same compound, the results for the GI50 (in the assay on SW480; in [1] (setting [6])) were 1200 nM and 520 nM, respectively. In addition, the IC50 with SW480 stood at 1210 nM; in [1] (A204, Soft Tissue - Sarcoma), 540 nM. Besides, the “Relative cell count (%) Mean” value in the assay with SW480 (SW480, 3.00E+00 microM) stood at 4.1%; with SW480 (SW480, 3.00E+01 microM), 0.4%; with SW480 (SW480, 3.01E−01 microM) it was 93.5%; in the assay with SW480 (SW480, 3.01E−02 microM), 99.5%; in the assay with SW480 (SW480, 3.02E−03 microM) it was 116.5%; with SW480 (SW480, 9.49E+00 microM) it was 0.2%. The “Relative cell count (%) Mean” value in the assay on SW480 (SW480, 9.51E−01 microM) was 69.9%; in the assay on SW480 (SW480, 9.52E−02 microM), 94.1%; with SW480 (SW480, 9.53E−03 microM), 103.7%; in the assay with SW480 (SW480, 9.55E−04 microM) it was 111.8%.

Source of the values: patent US11331299B2, “Medicinal use of serrulatane diterpenes” (The University of Sydney, priority 2016, dated 2022).
